Source: patent publication US9932339B2, “Helquats with heteroaromatic substituents, preparation thereof, and use thereof as G-quadruplex stabilizers” (USTAV ORGANICKE CHEMIE A BIOCHEMIE AV CR, V.V.I., priority 2014, dated 2018)
Like-named read-outs stand apart in the source and are kept apart here.

Key:
HUVEC = assay: XTT cytotoxicity/proliferation assay, HUVEC; assay type: cell-based, human; conditions: Homo sapiens, HUVEC
Procedure, shortened: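 HUVEC (passages 3–8, collagen I-coated dishes, E-STIM medium) plated at 3000 cells/well, dosed next day with compounds in water. After 72 h at 37 °C, XTT added for 2 h; absorbance at 492 nm (reference 690 nm) against untreated and medium-only controls.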

[1] = tested on: G-quadruplex oligonucleotide Fmyc27T (NHE III1 promoter region of c-myc oncogene); assay: FRET melting of G-quadruplex oligonucleotide Fmyc27T with ligands; assay type: binding; conditions: for ΔTm (° C.) Fmyc27T/ds26 (° C.): helquat 1 μmol·l^−1, oligonucleotide 0.2 μmol·l^−1, 50-fold excess of double-stranded competitor ds26; for ΔTm (° C.) Fmyc27T: helquat 1 μmol·l^−1, oligonucleotide 0.2 μmol·l^−1, without competitor
Source text: To determine the degree of in vitro interactions of helquats with G-quadruplex(es), the oligonucleotides containing the guanine-rich sequences of human telomere (F21T) and NHE III1 promoter region of c-myc oncogene (Fmyc27T) were used. Both oligonucleotides capable of forming an intramolecular G-quadruplex were end-labeled with suitable fluorophores so as to form donor-acceptor FRET pair (5′-FAM and 3′-TAMRA). If the oligonucleotide is folded into the structure of the G-quadruplex, donor is in close proximity of acceptor and radiationless energy transfer to the acceptor occurs. With increasing temperature of the reaction mixture G-quadruplex structure gradually denatures and thus the donor and acceptor (FAM-TAMRA) drift apart. This leads to an increase in fluorescence of donor (FAM) and a decrease in fluorescence of acceptor (TAMRA).
The result of measurement is the curve of dependence of the intensity of fluorescence of the donor on the temperature. If the G-quadruplex is stabilized by ligand, melting temperature will increase. Melting temperature of G-quadruplex corresponds to the temperature when 50% of the original amount of the folded G-quadruplex is denatured. The measurement outcome is the difference in the melting temperatures (ΔTm) of the G-quadruplex alone and the G-quadruplex stabilized by ligand. In case of Fmyc27T experiments were performed in cacodylate buffer (10 mmol·l^−1, pH=7.2) with KCl (5 mmol·l^−1) and LiCl (95 mmol·l^−1) oligonucleotide and in case of F21T oligonucleotide in cacodylate buffer (10 mmol·l^−1, pH=7.2) with KCl (25 mmol·l^−1) and LiCl (75 mmol·l^−1).
Both oligonucleotides were denatured for 5 minutes at 95° C. and subsequently allowed to cool to room temperature (3 hours) in the switched-off thermoblock. The final oligonucleotide concentration in the reaction mixture was 0.2 μmol·l^−1. Test helquats were present at concentrations of 1 μmol·l^−1. The total reaction volume was 30 μl. The melting temperature of the oligonucleotides alone (without the presence of helquats) under these conditions was 58.1±0.2° C. for F21T and 64.7±0.4° C. for Fmyc27T. For determining the selectivity of binding of helquats to G-quadruplex in comparison with the double-stranded DNA, 50-fold excess of double-stranded DNA ([…] unlabeled competitor ds26 forming a hairpin) is added to the reaction mixture. After the addition to the reaction mixture ds26 competes with labeled oligonucleotide (Fmyc27T or F21T) for ligand binding. […] Melting temperature of oligonucleotides alone in the presence of the competitor is 59.4±0.5° C. for F21T and 66.3° C.±0.6° C. for Fmyc27T.
Fluorescence of FAM donor was measured using real-time PCR apparatus Opticon 2 (excitation 470-505 nm and emission 523-543 nm) in temperature increments of 0.5° C. in the range 25 to 95° C. Evaluation of the sigmoid curves of fluorescence intensity dependent on the temperature were performed in GraphPad Prism 5 (GraphPad Software, Inc., USA). Using nonlinear five parametric regression the inflection point on the curve was calculated that corresponds to the melting temperature (Tm) of the G-quadruplex under the given conditions. The values were obtained from at least three independent measurements.

[2] = 72 hours of treatment, values above 100 μmol·l^−1 obtained by extrapolation, read-out: IC50 HUVEC
[3] = 72 hours, summary of table 9, read-out: concentrations non-toxic towards HUVEC cells

Structure (SMILES) | IC50 (HUVEC; [2]) [µM] | IC50 (HUVEC; [3]) [µM] | ΔTm (° C.) Fmyc27T/ds26 (° C.) [1] [°C] | ΔTm (° C.) Fmyc27T [1] [°C]
Brc1ccc2[nH]cc(/C=C/c3cc4ccccc4[n+]4c3-c3c(ccc5c3-c3cccc[n+]3CCC5)CCC4)c2c1.O=S(=O)([O-])C(F)(F)F.O=S(=O)([O-])C(F)(F)F [MSC-C9-30, 19-((E)-2-(5-bromo-1H-indol-3-yl)vinyl)-6,7,8,11,12,13-hexahydropyrido[1′″,2′″:1″,2″]azepino[4″,3″:5′,6′]benzo[1′,2′:3,4]azepino[1,2-a]quinoline-5,14-diium trifluoromethanesulfonate] | ≥ 100 | > 100 | – | –
O=[N+]([O-])c1cccc2[nH]cc(/C=C/c3cc[n+]4c(c3)-c3c(ccc5c3-c3cccc[n+]3CC5)CC4)c12 (racemic) [LSA-C9-32, (rac)-(E)-2-(2-(4-nitro-1H-indol-3-yl)vinyl)-6,7,10,11-tetrahydrodipyrido[2,1-a:1′,2′-k][2,9]phenanthroline-5,12-diium trifluoromethanesulfonate] | ≥ 100 | > 100 | 8.1 | 10.4
C(=C\c1c(-c2ccccc2)[nH]c2ccccc12)/c1cc2ccccc2[n+]2c1-c1c(ccc3c1-c1cccc[n+]1CCC3)CCC2.O=S(=O)([O-])C(F)(F)F.O=S(=O)([O-])C(F)(F)F [MSC-C15-8, 19-((E)-2-(2-phenyl-1H-indol-3-yl)vinyl)-6,7,8,11,12,13-hexahydropyrido[1′″,2′″:1″,2″]azepino[4″,3″:5′,6′]benzo[1′,2′:3,4]azepino[1,2-a]quinoline-5,14-diium trifluoromethanesulfonate] | ≥ 51 | – | – | –
Cc1c(C)c2c(c3c1CC[n+]1ccc(/C=C/c4cccc5c4oc4ccccc45)cc1-3)-c1c3ccccc3cc[n+]1CC2 (racemic) [MJA-C13-8, (rac)-(E)-13-(2-(dibenzo[b,d]furan-4-yl)vinyl)-6,7-dimethyl-4,5,8,9-tetrahydroisoquinolino[1,2-a]pyrido[1,2-k][2,9]phenanthroline-3,10-diium trifluoromethanesulfonate] | ≥ 100 | – | 4.9 | 11.0
C(=C\c1cccc2c1oc1ccccc12)/c1cc[n+]2c(c1)-c1c(ccc3c1-c1c4ccccc4cc[n+]1CC3)CC2.O=S(=O)([O-])C(F)(F)F.O=S(=O)([O-])C(F)(F)F [MSB-C13-8, (E)-13-(2-(dibenzo[b,d]furan-4-yl)vinyl)-4,5,8,9-tetrahydroisoquinolino[1,2-a]pyrido[1,2-k][2,9]phenanthroline-3,10-diium trifluoromethanesulfonate] | ≥ 100 | – | 7.7 | 12.6
